Columns and labels:
[1] = biological target: T1, Full-length human PRMT1 isoform 1 (Homo sapiens, UniProt Q99873); assay: PRMT1 biochemical assay (3H-SAM Flashplate, peptide substrate)
T1 construct: GST-tagged PRMT1; made in house; host or cells: High Five insect cells (baculovirus, pFastBacI)
Method in brief: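 Tritiated methyl transfer from 3H-SAM onto biotinylated peptide, captured on streptavidin Flashplates and counted. Baculovirus-expressed GST-PRMT1 and compound were preincubated 30 min at room temperature in Bicine buffer pH 7.6. Cold SAM at 300 uM final ended the reaction.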

Full-length human PRMT3 = biological target: T2, Full-length human PRMT3 (Homo sapiens, UniProt O60678); assay: PRMT3 biochemical assay (3H-SAM Flashplate, peptide substrate)
T2 construct: GST-tagged PRMT3; made in house; host or cells: E. coli BL21(DE3) Gold (pGEX-KG)
T2 sequence (O60678 with tags, fused parts or gaps): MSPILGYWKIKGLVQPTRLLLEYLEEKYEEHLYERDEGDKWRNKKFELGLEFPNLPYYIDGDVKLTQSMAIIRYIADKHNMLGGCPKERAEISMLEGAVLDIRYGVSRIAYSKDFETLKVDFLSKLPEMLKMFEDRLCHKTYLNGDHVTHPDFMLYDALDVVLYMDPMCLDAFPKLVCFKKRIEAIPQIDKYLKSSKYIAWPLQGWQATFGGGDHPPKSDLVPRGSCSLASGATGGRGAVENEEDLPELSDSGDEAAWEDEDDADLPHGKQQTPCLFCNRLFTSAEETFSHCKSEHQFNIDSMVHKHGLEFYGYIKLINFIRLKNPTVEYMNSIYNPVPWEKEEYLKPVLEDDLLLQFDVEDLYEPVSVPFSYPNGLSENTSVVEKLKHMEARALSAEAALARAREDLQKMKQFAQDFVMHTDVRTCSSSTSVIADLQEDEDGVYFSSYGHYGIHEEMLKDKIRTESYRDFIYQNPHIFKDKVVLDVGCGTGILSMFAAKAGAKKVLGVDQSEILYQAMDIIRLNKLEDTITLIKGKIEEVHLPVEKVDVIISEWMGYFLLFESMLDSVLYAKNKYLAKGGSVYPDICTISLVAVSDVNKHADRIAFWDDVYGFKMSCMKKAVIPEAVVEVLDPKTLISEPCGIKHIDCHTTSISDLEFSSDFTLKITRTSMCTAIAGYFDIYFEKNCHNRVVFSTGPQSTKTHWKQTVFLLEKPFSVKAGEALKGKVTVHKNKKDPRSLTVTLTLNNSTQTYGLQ
Excerpt: General Materials. S-adenosylmethionine (SAM), S-adenosylhomocysteine (SAH), bicine, Tween20, dimethylsulfoxide (DMSO), bovine skin gelatin (BSG),), isopropyl-β-D-thiogalactopyranoside (IPTG), and Tris(2-carboxyethyl)phosphine hydrochloride solution (TCEP) were purchased from Sigma-Aldrich at the highest level of purity possible. ^3H-SAM was purchase from American Radiolabeled Chemicals with a specific activity of 80 Ci/mmol. 384-well streptavidin Flashplates were purchased from PerkinElmer.
Substrates. Peptide containing the classic RMT substrate motif was synthesized with an N-terminal linker-affinity tag motif and a C-terminal amide cap by 21st Century Biochemicals. The peptide was purified by high-performance liquid chromatography (HPLC) to greater than 95% purity and confirmed by liquid chromatography mass spectrometry (LC-MS). The sequence was Biot-Ahx-[…]-amide (SEQ ID NO.:11).
Molecular Biology: : Full-length human PRMT3 (NM_005788.3) isoform 1 transcript clone was amplified from an HEK 293 cDNA library and subcloned into pGEX-KG (GE Life Sciences). The resulting construct encodes an N-terminal GST tag and a thrombin cleavage sequence ([…] […] […] […]) (SEQ ID NO.:12) fused directly to Cys 2 of PRMT3.
Protein Expression. E. coli (BL21(DE3) Gold, Stratagene) made competent by the CaCl2 method were transformed with the PRMT3 construct and ampicillin selection. Protein over-expression was accomplished by growing the PRMT3 expressing E. coli clone and inducing expression with 0.3 mM IPTG at 16° C. The culture was grown for 12 hours, harvested by centrifugation, and stored at −80° C. for purification.
Protein Purification. […] GST-tagged PRMT3 eluted with 25-400 mM phosphate in buffer C. Protein was concentrated and buffer was exchanged to 20 mM Tris, 150 mM NaCl, 5% glycerol, 5 mM β-mercaptoethanol, pH7.8 by ultrafiltration. The purity of recovered protein was 70%.
General Procedure for PRMT3 Enzyme Assays on Peptide Substrates. The assays were all performed in a buffer consisting of 20 mM Bicine (pH=7.6), 1 mM TCEP, 0.005% BSG, and 0.002% Tween 20, prepared on the day of use. Compounds in 100% DMSO (1 ul) were spotted into a polypropylene 384-well V-bottom plates (Greiner) using a Platemate Plus outfitted with a 384-channel head (Thermo Scientific). DMSO (1 ul) was added to Columns 11, 12, 23, 24, rows A-H for the maximum signal control and 1 ul of SAH, a known product and inhibitor of PRMT3, was added to columns 11, 12, 23, 24, rows I-P for the minimum signal control. A cocktail (40 ul) containing the PRMT3 enzyme was added by Multidrop Combi (Thermo-Fisher). The compounds were allowed to incubate with PRMT3 for 30 min at room temperature, then a cocktail (10 ul) containing SAM and peptide was added to initiate the reaction (final volume=51 ul). The final concentrations of the components were as follows: PRMT3 was 0.5 nM, ^3H-SAM was 100 nM, non-radiolabeled SAM was 1.8 uM, peptide was 330 nM, SAH in the minimum signal control wells was 1 mM, and the DMSO concentration was 2%. The assays were stopped by the addition of potassium chloride (10 ul) to a final concentration of 100 mM. 50 ul of the reaction in the 384-well polypropylene plate was then transferred to a 384-well Flashplate and the biotinylated peptides were allowed to bind to the streptavidin surface for at least 1 hour before being washed once with 0.1% Tween20 in a Biotek ELx405 plate washer. The plates were then read in a PerkinElmer TopCount plate reader to measure the quantity of ^3H-labeled peptide bound to the Flashplate surface, measured as disintegrations per minute (dpm) or alternatively, referred to as counts per minute (cpm).
Where dpm=disintegrations per minute, cmpd=signal in assay well, and min and max are the respective minimum and maximum signal controls.
Where top and bottom are the normally allowed to float, but may be fixed at 100 or 0 respectively in a 3-parameter fit. […]

T1 sequence (Q99873 with tags, fused parts or gaps): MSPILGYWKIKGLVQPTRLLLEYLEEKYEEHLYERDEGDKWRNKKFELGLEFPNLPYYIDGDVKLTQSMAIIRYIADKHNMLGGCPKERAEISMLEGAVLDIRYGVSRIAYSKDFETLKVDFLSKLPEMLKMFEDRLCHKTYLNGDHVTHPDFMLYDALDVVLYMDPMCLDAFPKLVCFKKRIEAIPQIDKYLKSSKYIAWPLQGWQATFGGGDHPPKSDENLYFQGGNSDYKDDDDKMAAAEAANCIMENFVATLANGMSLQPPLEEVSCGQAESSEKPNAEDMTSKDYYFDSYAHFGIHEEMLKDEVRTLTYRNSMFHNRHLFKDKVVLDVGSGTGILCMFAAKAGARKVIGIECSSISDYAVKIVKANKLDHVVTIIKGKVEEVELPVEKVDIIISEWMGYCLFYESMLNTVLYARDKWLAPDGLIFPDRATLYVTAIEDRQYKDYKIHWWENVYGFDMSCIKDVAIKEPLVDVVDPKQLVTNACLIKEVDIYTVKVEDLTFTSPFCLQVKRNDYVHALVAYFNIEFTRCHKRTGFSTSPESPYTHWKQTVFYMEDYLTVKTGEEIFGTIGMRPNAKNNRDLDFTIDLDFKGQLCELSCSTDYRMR

Structure (SMILES)	IC50 [1] [µM]	IC50 (Full-length human PRMT3) [µM]
CN(CCN)Cc1c[nH]nc1-c1cccc(N(C)C)c1 [Compound 149]	< 0.1	3.01 to 10
CCOC(=O)c1cccc(-c2n[nH]cc2CN(C)CCN)c1 [Compound 150]	< 0.1	> 10
COc1cc(F)ccc1-c1n[nH]cc1CN(C)CCN [Compound 151]	0.101 to 1	> 10
Cc1cc(F)ccc1-c1n[nH]cc1CN(C)CCN [Compound 152]	< 0.1	3.01 to 10
COc1ccc(-c2n[nH]cc2CN(C)CCN)cc1 [Compound 153]	< 0.1	3.01 to 10
COc1ccc(-c2n[nH]cc2CN(C)CCN)c(C(F)(F)F)c1 [Compound 154]	0.101 to 1	> 10
COc1ccc(-c2n[nH]cc2CN(C)CCN)c(C)c1 [Compound 155]	< 0.1	3.01 to 10
CN(CCN)Cc1c[nH]nc1-c1cc(Cl)ccc1F [Compound 156]	0.101 to 1	> 10
COc1ccc(Cl)cc1-c1n[nH]cc1CN(C)CCN [Compound 157]	1.01 to 3	> 10
Cc1ccc(C#N)cc1-c1n[nH]cc1CN(C)CCN [Compound 158]	1.01 to 3	> 10
Cc1ccc(F)cc1-c1n[nH]cc1CN(C)CCN [Compound 159]	< 0.1	> 10
COc1ccc(F)cc1-c1n[nH]cc1CN(C)CCN [Compound 160]	0.101 to 1	> 10
Cc1ccccc1-c1n[nH]cc1CN(C)CCN [Compound 161]	0.101 to 1	> 10
Cc1ccc(-c2n[nH]cc2CN(C)CCN)cc1 [Compound 162]	< 0.1	3.01 to 10
CCN(C)C(=O)c1ccc(-c2n[nH]cc2CN(C)CCN)cc1 [Compound 163]	0.101 to 1	> 10
CC(C)CN(C)C(=O)c1ccc(-c2n[nH]cc2CN(C)CCN)cc1 [Compound 164]	0.101 to 1	> 10
CCOc1ccc(-c2n[nH]cc2CN(C)CCN)cc1 [Compound 166]	< 0.1	3.01 to 10
COCCOc1ccc(-c2n[nH]cc2CN(C)CCN)cc1 [Compound 167]	< 0.1	3.01 to 10
Cc1[nH]nc(-c2ccc(F)cc2)c1CN(C)CCN [Compound 169]	0.101 to 1	> 10
CC(C)Cc1ccc(-c2c[nH]nc2CN(C)CCN)cc1 [Compound 170]	< 0.1	3.01 to 10
NCCN(CCO)Cc1c[nH]nc1-c1ccc(F)cc1 [Compound 171]	0.101 to 1	> 10
CN(CCN)Cc1c[nH]nc1-c1ccc(OCCN2CCOCC2)cc1 [Compound 172]	0.101 to 1	3.01 to 10

From patent publication US9346761B2, “Arginine methyltransferase inhibitors and uses thereof” (Epizyme, Inc., priority 2013, dated 2016)
